The nature of data set [1]: In vitro dissociation in blood plasma of rat. The note with it: fresh SD rat plasma, 37° C.; for Sampling time/Dissociation percent (%) 2 min: 2 min incubation; for Sampling time/Dissociation percent (%) 5 min: 5 min incubation; for Sampling time/Dissociation percent (%) 10 min: 10 min incubation. Type of data set: in vitro ADME, SD rats. The method, then: The obtained water soluble taxane derivatives of the following formulae were formulated as 0.2 mg/ml aqueous solutions. […] After 2 min, 5 min and 10 min of incubation, 0.2 ml of solutions were respectively taken from each of the samples, and added to acetonitrile (0.4 ml) cooled to −20° C. for precipitation of protein.

The nature of data set [2]: In vitro dissociation in blood plasma of rabbit. The settings on record: fresh New Zealand white rabbit plasma, 37° C. In kind it is in vitro ADME, New Zealand white rabbits. On the procedure:
The obtained water soluble taxane derivatives of the following formulae were formulated as 0.2 mg/ml aqueous solutions. […]

Data set [3] can be described thus: In vivo metabolic test of the water soluble paclitaxel derivatives in rats. The note with it: SD rats, 5 mg/kg intravenous, 5 min after administration, LC-MS.
Method: After 5 min of administration, 0.3 ml of venous blood was taken from the retrobulbar venous plexus of the rats, placed in heparinized tubes, and centrifuged at 11.000 rpm for 5 min. Blood plasma was separated, and the concentrations of the compounds in the blood plasma were determined by liquid chromatography-mass spectrometry.
For data set [4] the following is noted: SD rats, 5 mg/kg intravenous, 5 min after administration, LC-MS.
Method: After 5 min of administration, 0.3 ml of venous blood was taken from the retrobulbar venous plexus of the rats, placed in heparinized tubes, and centrifuged at 11,000 rpm for 5 min. Plasma was separated, and the concentrations of the compounds in the plasma were determined by liquid chromatography □-mass spectrometry.
The conditions of data set [5]: physiological saline.
For data set [6], the system named is human prostate cancer PC-3. Put plainly: Inhibitory activity of docetaxel derivatives on subcutaneously xenografted tumor PC-3 in nude mice. Type of data set: in vivo. The note with it: 14 mg/kg, D0 IV.
From the text: Purpose: to evaluate and compare the inhibitory activity of the water soluble docetaxel derivatives and docetaxel on subcutaneously xenografted tumor of human prostate cancer PC-3 in nude mice
Human prostate cancer PC-3 cells were subcutaneously inoculated into nude mice. After the tumor volume reached 100-150 mm^3, the animals were randomly divided into several groups, and administered with the water soluble docetaxel derivatives of the following formula and docetaxel, respectively once on the same day (D0). The tumor volume was measured 2-3 times per week, the animals were weighed and the data were recorded until day 20 (D20) after grouping.
(§1) The tumor volume (V) was calculated according to the equation: V=½×a×b^2, wherein a and b represent the length and the width, respectively.
T/C (%)=(T−T0)/(C−C0)×100, wherein T and C represent the tumor volume at the end of the experiment; and T0 and C0 represent the tumor volume at the beginning of the experiment.
The subject of data set [7] is human ovarian cancer SK-OV-3. The note with it: 16 mg/kg, D0-4 IV.
From the text: Purpose: to evaluate and compare the inhibitory activity of the water soluble paclitaxel derivatives, paclitaxel and Abraxane® on subcutaneously xenografted tumor of human ovarian cancer SK-OV-3 in nude mice.
Human ovarian cancer SK-OV-3 cells were subcutaneously inoculated to nude mice. After the tumor volume reached 100-150 mm^3, the animals were randomly divided into groups (D0), and administered with the water soluble paclitaxel derivatives of the following formula, paclitaxel, and Abraxane®, respectively once per day for 5 days. The tumor volume was measured 2-3 times per week, the animals were weighed and the data were recorded until day 22 (D22) after grouping.
as §1
T/C (%)=(T−T0)/(C−C0)×100, wherein T and C represent the tumor volume at the end of the experiment, and T0 and C0 represent the tumor volume at the beginning of the experiment.
[8] abbreviates: D20, PC-3 xenograft in nude mice.
Where [9] appears, read: D22, SK-OV-3 xenograft in nude mice.

SMILES strings stand for the structures. Where two headings read alike, the source gives them in different places.

For the compound `CC(=O)O[C@H]1C(=O)[C@@]2(C)[C@H]([C@H](OC(=O)c3ccccc3)[C@]3(O)C[C@H](OC(=O)[C@H](OC(=O)[C@H](F)CCN(C)C)[C@@H](NC(=O)c4ccccc4)c4ccccc4)C(C)=C1C3(C)C)[C@]1(OC(C)=O)CO[C@@H]1C[C@@H]2O.Cl` [Compound 01, 2′-O-[4-N,N-dimethylamino-2(R)-fluorobutyryl]paclitaxel hydrochloride], in data set [1], the “Sampling time/Dissociation percent (%) 2 min” value worked out at 63.5%, the “Sampling time/Dissociation percent (%) 5 min” value is recorded as 96.8% and the “Sampling time/Dissociation percent (%) 10 min” value stood at 100%. For the same compound, in data set [2], the “Sampling time/Dissociation percent (%) 2 min” value came out at 76.5%, the “Sampling time/Dissociation percent (%) 5 min” value amounted to 98.3% and the “Sampling time/Dissociation percent (%) 10 min” value is recorded as 100%. For the same compound, the “detection of the administered compound in the blood plasma” value (from here on “detection of the administered compound”) in data set [3] is on record as “cannot be detected”.

For the compound `CC(=O)O[C@H]1C(=O)[C@@]2(C)[C@H]([C@H](OC(=O)c3ccccc3)[C@]3(O)C[C@H](OC(=O)[C@H](OC(=O)[C@@H](F)CCN(C)C)[C@@H](NC(=O)c4ccccc4)c4ccccc4)C(C)=C1C3(C)C)[C@]1(OC(C)=O)CO[C@@H]1C[C@@H]2O.Cl` [Compound 02, 2′-O-[4-N,N-dimethylamino-2(S)-fluorobutyryl]paclitaxel hydrochloride], in data set [1], the “Sampling time/Dissociation percent (%) 2 min” value was found to be 59.8%, the “Sampling time/Dissociation percent (%) 5 min” value is on record as 95.6% and the “Sampling time/Dissociation percent (%) 10 min” value is recorded as 100%. Moreover, in data set [2], the “Sampling time/Dissociation percent (%) 2 min” value is 68.2%, the “Sampling time/Dissociation percent (%) 5 min” value amounted to 97.5% and the “Sampling time/Dissociation percent (%) 10 min” value amounted to 100%. For the same compound, in data set [3], the “detection of the administered compound” value is “cannot be detected” and the “mean concentration of paclitaxel in the blood plasma” value (“mean concentration of paclitaxel” below) came to 1637 ng/mL.

As to `CC(=O)O[C@H]1C(=O)[C@@]2(C)[C@H]([C@H](OC(=O)c3ccccc3)[C@]3(O)C[C@H](OC(=O)[C@H](OC(=O)C(F)CCN(C)C)[C@@H](NC(=O)c4ccccc4)c4ccccc4)C(C)=C1C3(C)C)[C@]1(OC(C)=O)CO[C@@H]1C[C@@H]2O.Cl` (stereo partly drawn) [Compound 03, 2′-O-[4-N,N-dimethylamino-2(R,S)-fluorobutyryl]paclitaxel hydrochloride], in data set [1], the “Sampling time/Dissociation percent (%) 2 min” value was 61.8%, the “Sampling time/Dissociation percent (%) 5 min” value was determined as 93.1% and the “Sampling time/Dissociation percent (%) 10 min” value is recorded as 100%. Further, in data set [2], the “Sampling time/Dissociation percent (%) 2 min” value was 75.7%, the “Sampling time/Dissociation percent (%) 5 min” value was determined as 93.5% and the “Sampling time/Dissociation percent (%) 10 min” value came to 100%. In data set [3], the “detection of the administered compound” value is reported as “cannot be detected” and the “mean concentration of paclitaxel” value amounted to 1825 ng/mL.

As for `CC(=O)OC12COC1CC(O)C1(C)C(=O)C(O)C3=C(C)C(OC(=O)C(OC(=O)C(F)CCN(C)C)C(NC(=O)OC(C)(C)C)c4ccccc4)CC(O)(C(OC(=O)c4ccccc4)C21)C3(C)C.Cl` [Compound 04, 2′-O-[4-N,N-dimethylamino-2(R)-fluorobutyryl]docetaxel hydrochloride], in data set [4], the “detection of the administered compound” value is “cannot be detected” and the “mean concentration of docetaxel in the blood plasma” value (“mean concentration of docetaxel” below) came out at 1506 ng/mL. For the same compound, in data set [1], the “Sampling time/Dissociation percent (%) 2 min” value amounted to 58.6%, the “Sampling time/Dissociation percent (%) 5 min” value is given as 92.6% and the “Sampling time/Dissociation percent (%) 10 min” value is recorded as 100%. For the same compound, in data set [2], the “Sampling time/Dissociation percent (%) 2 min” value was 80.2%, the “Sampling time/Dissociation percent (%) 5 min” value is listed as 93.5% and the “Sampling time/Dissociation percent (%) 10 min” value came out at 100%.

As for `CC(=O)O[C@@]12CO[C@@H]1C[C@H](O)[C@@]1(C)C(=O)[C@H](O)C3=C(C)[C@@H](OC(=O)[C@H](OC(=O)[C@@H](F)CCN(C)C)[C@@H](NC(=O)OC(C)(C)C)c4ccccc4)C[C@@](O)([C@@H](OC(=O)c4ccccc4)[C@H]21)C3(C)C.Cl` [Compound 05, 2′-O-[4-N,N-dimethylamino-2(S)-fluorobutyryl]docetaxel hydrochloride], in data set [4], the “detection of the administered compound” value is reported as “cannot be detected” and the “mean concentration of docetaxel” value is 1387 ng/mL. Moreover, in data set [1], the “Sampling time/Dissociation percent (%) 2 min” value was found to be 56.4%, the “Sampling time/Dissociation percent (%) 5 min” value amounted to 91.1% and the “Sampling time/Dissociation percent (%) 10 min” value came to 100%. Also, in data set [2], the “Sampling time/Dissociation percent (%) 2 min” value is 79.3%, the “Sampling time/Dissociation percent (%) 5 min” value was found to be 91.8% and the “Sampling time/Dissociation percent (%) 10 min” value amounted to 100%.

As for `CC(=O)O[C@@]12CO[C@@H]1C[C@H](O)[C@@]1(C)C(=O)[C@H](O)C3=C(C)[C@@H](OC(=O)[C@H](OC(=O)C(F)CCN(C)C)[C@@H](NC(=O)OC(C)(C)C)c4ccccc4)C[C@@](O)([C@@H](OC(=O)c4ccccc4)[C@H]21)C3(C)C.Cl` (stereo partly drawn) [Compound 06, 2′-O-[4-N,N-dimethylamino-2(R,S)-fluorobutyryl]docetaxel hydrochloride], in data set [4], the “detection of the administered compound” value is “cannot be detected” and the “mean concentration of docetaxel” value turned out to be 1621 ng/mL. Besides, in data set [1], the “Sampling time/Dissociation percent (%) 2 min” value is recorded as 56.4%, the “Sampling time/Dissociation percent (%) 5 min” value was found to be 91.1% and the “Sampling time/Dissociation percent (%) 10 min” value is on record as 100%. In data set [2], the “Sampling time/Dissociation percent (%) 2 min” value turned out to be 75.6%, the “Sampling time/Dissociation percent (%) 5 min” value turned out to be 98.6% and the “Sampling time/Dissociation percent (%) 10 min” value is listed as 100%.

In general, Solubility refers to the dissolved amount per volume that the medium holds. Low values mean little dissolved substance, high ones much dissolved substance. On to `CC(=O)OC1C(=O)C23CC2CC2OCC2(OC(C)=O)C3C(OC(=O)c2ccccc2)C2(O)CC(OC(=O)C(OC(=O)C(F)CC(C)N(C)C)C(NC(=O)OC(C)(C)C)c3ccccc3)C(C)=C1C2(C)C.CS(=O)(=O)O` [Compound 16, 2′-O-[4-N,N-dimethylamino-2(R)-fluorovaleryl]larotaxel methanesulfonate], for which, in data set [1], the “Sampling time/Dissociation percent (%) 2 min” value was found to be 60.2%, the “Sampling time/Dissociation percent (%) 5 min” value worked out at 92.1% and the “Sampling time/Dissociation percent (%) 10 min” value came to 100%. For the same compound, in data set [2], the “Sampling time/Dissociation percent (%) 2 min” value amounted to 63.2%, the “Sampling time/Dissociation percent (%) 5 min” value was determined as 94.1% and the “Sampling time/Dissociation percent (%) 10 min” value came out at 100%. In addition, the “Solubility” value in data set [5] worked out at 11.1 mg/mL.

Consider `CC(=O)OC12COC1CCC1(C)C3OC(CN(C)C)OC3C3=C(C)C(OC(=O)C(OC(=O)C(F)CC(C)N(C)C)C(NC(=O)OC(C)(C)C)c4ncccc4F)CC(O)(C(OC(=O)c4ccccc4)C12)C3(C)C.CS(=O)(=O)O` [Compound 17, 2′-O-[4-N,N-dimethylamino-2(R)-fluorovaleryl]tesetaxel methanesulfonate], for which, in data set [1], the “Sampling time/Dissociation percent (%) 2 min” value came to 59.3%, the “Sampling time/Dissociation percent (%) 5 min” value is 93.5% and the “Sampling time/Dissociation percent (%) 10 min” value came out at 100%. In data set [2], the “Sampling time/Dissociation percent (%) 2 min” value worked out at 62.7%, the “Sampling time/Dissociation percent (%) 5 min” value was found to be 93.4% and the “Sampling time/Dissociation percent (%) 10 min” value was found to be 100%. Besides, the “Solubility” value in data set [5] came to 12.3 mg/mL.

Turning to `CCN(C)C(C)C[C@H](C(=O)O[C@@H](C(=O)O[C@H]1C[C@@]2(O)[C@@H](OC(=O)c3ccccc3)[C@@H]3[C@]4(OC(C)=O)CO[C@@H]4C[C@H](O)[C@@]3(C)C(=O)[C@H](O)C(=C1C)C2(C)C)[C@@H](NC(=O)OC(C)(C)C)c1ccccc1)C(C)(F)F.CS(=O)(=O)O` (stereo partly drawn) [Compound C12, 2′-O-[4-N-methyl-N-ethylamino-2(R)-2-difluoroethylvaleryl]docetaxel methanesulfonate], in data set [1], the “Sampling time/Dissociation percent (%) 2 min” value was found to be 42.8%, the “Sampling time/Dissociation percent (%) 5 min” value was determined as 74.8% and the “Sampling time/Dissociation percent (%) 10 min” value is given as 88.4%. In data set [2], the “Sampling time/Dissociation percent (%) 2 min” value came out at 44.6%, the “Sampling time/Dissociation percent (%) 5 min” value was 72.1% and the “Sampling time/Dissociation percent (%) 10 min” value is on record as 89.6%. For the same compound, the “Solubility” value in data set [5] turned out to be 11.3 mg/mL.

With `CC(=O)O[C@@]12CO[C@@H]1C[C@H](O)[C@@]1(C)C(=O)[C@H](O)C3=C(C)[C@@H](OC(=O)[C@H](O)[C@@H](NC(=O)OC(C)(C)C)c4ccccc4)C[C@@](O)([C@@H](OC(=O)c4ccccc4)[C@H]21)C3(C)C` [docetaxel, reference compound], the “mean concentration of docetaxel” value in data set [4] came out at 769 ng/mL. The “Weight change (%) D6” value in data set [6] (D6, nude mice) was −12.3%. In addition, in data set [6] (setting [8]), the “T/C (%) D20” value is −27% and the “Tumor volume (mm^3) (D20)” value worked out at 81.4 ± 25.1 mm^3. Moreover, the “Tumor inhibitory percent (%) D20” value in data set [6] (D20, PC-3 xenograft in nude mice, P = 0.000 vs control) is 127%. In addition, the “Tumor volume (mm^3) (D0)” value in data set [6] (baseline at grouping (D0), PC-3 xenograft in nude mice) came to 111.5 ± 1.3 mm^3.

In the case of `CC(=O)O[C@H]1C(=O)[C@@]2(C)[C@H]([C@H](OC(=O)c3ccccc3)[C@]3(O)C[C@H](OC(=O)[C@H](O)[C@@H](NC(=O)c4ccccc4)c4ccccc4)C(C)=C1C3(C)C)[C@]1(OC(C)=O)CO[C@@H]1C[C@@H]2O` [paclitaxel, reference compound], the “Body weight change (%) D4” value in data set [7] (D4, nude mice) is −4.8%. Further, in data set [7] (setting [9]), the “T/C (%) D22” value is −60% and the “Tumor volume (mm^3) (D22)” value was found to be 53.7 ± 11.2 mm^3. Besides, the “Tumor inhibitory percent (%) D22” value in data set [7] (D22, SK-OV-3 xenograft in nude mice, P = 0.000 vs control) turned out to be 160%. Moreover, the “Tumor volume (mm^3) (D0)” value in data set [7] (baseline at grouping (D0), SK-OV-3 xenograft in nude mice) is reported as 134.6 ± 19.7 mm^3. For the same compound, the “mean concentration of paclitaxel” value in data set [3] turned out to be 1793 ng/mL.
